Data set [1] has as its system Candida albicans strains 1-1, 3-1 and 4-1. Briefly: Anti-fungal/yeast microplate assay (MIC, resazurin). Format: cell-based. On the procedure: (§1) The three strains of Candida albicans (C. albicans) used: 1-1, 3-1 and 4-1 were isolated from human blood, vagina and oropharynx, respectively. Cryptococcus neoformans (C. neoformans) strain CCTP13 was used. All strains were cultured in RPMI-1640 medium at 37° C. The copper sulfate and Cu# compositions started at a high concentration of 200 micrograms/milliliter, whilst the Cu—Zn# compositions started at a high concentrations of 1% of the stock solution (Table 2) and zinc sulfate and phosphorous acid started with a high concentrations equivalent to those in Cu—Zn#7 and #10 (see the legend of Table 1 for details) doubling dilutions (100 microliters) of the compositions were prepared in RPMI-1640 in a 96-well tissue culture plate. Overnight C. albicans and C. neoformans cultures were diluted 1:40 and 1:10 respectively with fresh RPMI containing 40 mM MOPS buffer and 90 microliters was added to the compositions in the plate. Resazurin A (10 microliters of a 0.0675% wt/vol solution in distilled water) was added as an indicator of growth, and the cultures were incubated at 37° C. for 24 hr. The minimum inhibitory concentration (MIC) of the compounds/compositions was defined as the lowest concentration at which the resazurin A indicator remained blue (living cells convert the blue dye to a pink color).

For data set [2], the system named is Staphylococcus aureus strain (S1). Briefly: Agar plate test for antibacterial effect, area of inhibition. The class given is cell-based. On the procedure: (§2) A 0.2 milliliter sample of the P. acnes culture was spread onto a 9 centimeter Petri dish containing BHI agar and allowed to dry.
(§3) The composition to be tested was either diluted with distilled water and 5 microliters was placed onto a 5 millimeter filter paper disc or was added to the Aloe vera-based gel (without preservatives) described above at various concentrations and a 5 microliter drop was placed onto the agar surface. The plates were then incubated at 37° C. for 24 hours (under anaerobic conditions for P. acnes), when the zones of inhibition (ZoI) were measured in millimeters) twice at a […] angle using a ruler and the average diameter (D) was calculated. The area of inhibition in mm^2 (AoI) was calculated using the formula: AoI=π×(D/2)^2.

Data set [3] has as its system Propionibacterium acnes strain ATCC 11828 (P. acnes). Description: Agar plate test for antibacterial effect, zone of inhibition. The class given is cell-based. The settings on record: stock diluted 1:200 in distilled water (200 microgram/milliliter elemental copper for Cu# and copper sulfate), BHI agar, 24 hours anaerobic. The protocol:
as §2, §3

Data set [4] in a line: pH of stock solutions and gel formulation. The settings on record: stock solution. Format: physicochemical.
In another data set the test system is P. acnes. Briefly: Bacterial microplate cultures (MIC). Format: cell-based, Propionibacterium acnes. The protocol:
(§4) The aerobic bacterial strains Acinetobacter baumannii (A. baumannii), methicillin-resistant Staphylococcus aureus (MRSA) and Klebsiella pneumonia (K. pneumoniae) were isolated from swabs taken in a hospital ward. Escherichia coli (NCTC 9001; E. coli) is a clinical isolate from a patient's urinary bladder; all strains were cultured in RPMI-1640. Stock solutions of the compounds/compositions to be tested were diluted so that double dilutions in the microplate assays commenced at a 1% vol/vol concentration. Double dilutions of the compositions to be tested were prepared in RPMI-1640 in a 96-well tissue culture plate. The bacterial cultures were diluted 1:40 with fresh RPMI and added to the compositions. P. acnes was cultured as described in EXAMPLE 1 (Agar plate test methods) and a sample was diluted 1:100 with fresh BHI. Double dilutions of the compositions to be tested were prepared as described above in distilled water in a 96-well tissue culture plate (100 microliters) and 100 microliters of the diluted P. acnes culture was added. The plates were then incubated at 37° C. for 24 hours (under anaerobic conditions for P. acnes). The minimum inhibitory concentration (MIC) of the compositions was defined as the lowest concentration at which no visible bacterial growth was observed.

Data set [5] has as its system Acinetobacter baumannii (A. baumannii). Briefly: Bacterial microplate cultures (MIC). The class given is cell-based. The settings on record: RPMI-1640, 24 hours. On the procedure:
as §4

Data set [6] relates to Escherichia coli (NCTC 9001; E. coli). Description: Bacterial microplate cultures (MIC). Format: cell-based. Conditions: RPMI-1640, 24 hours. The protocol:
as §4

Data set [7] deals with Klebsiella pneumonia (K. pneumoniae). Description: Bacterial microplate cultures (MIC). Format: cell-based. The settings on record: RPMI-1640, 24 hours. On the procedure: as §4
Data set [8] deals with methicillin-resistant Staphylococcus aureus (MRSA). Briefly: Bacterial microplate cultures (MIC). Format: cell-based. The settings on record: RPMI-1640, 24 hours. On the procedure: as §4
In data set [9] the test system is Aspergillus niger (A. niger). Briefly: Anti-fungal assay with plant pathogenic fungi on PDA. Format: cell-based. On the procedure: (§5) Chalara […] isolate 196/28 ([…]), Aspergillus niger (A. niger) and a strain isolated from powdery mildew (Pm; isolated from an apple leaf) were cultured on potato dextrose agar (PDA) at room temperature (around 22° C.). […] The plate was agitated to evenly distribute the test composition evenly through the agar (distilled water alone was used as control) and then the agar was allowed to set. […] To assess the effects of compositions on fungal growth, the diameter of the fungal hyphae was measured twice at a 90° angle using a ruler and the average diameter in millimeters was calculated. If no fungal growth could be detected by eye, the cultures were observed by phase microscopy (40×) to confirm that there was no growth (NG) as judged by visual examination.

In data set [10] the test system is Chalara fraxinea isolate 196/28 (C. fraxinea). Described as above. The class given is cell-based. On the procedure: as §5
Data set [11] has as its system strain isolated from powdery mildew (Pm). The description is as above. Format: cell-based, powdery mildew (isolated from an apple leaf). The settings on record: 3 days of culture. On the procedure:
as §5

The test system of data set [12] is Cryptococcus neoformans strain CCTP13. Briefly: Anti-fungal/yeast microplate assay (MIC, resazurin). The class given is cell-based. Conditions: C. neoformans. On the procedure: as §1
On the technique in general: Resazurin is reduced to fluorescent resorufin, in cell work by metabolically active cells.

In a further data set the test system is A-431. Description: Cytotoxicity assay with a human squamous epithelial skin cell line (SRB assay). The settings on record: confluent A-431, 24 hours, SRB (FIG. 4). Background: In SRB staining, fixed cells bind dye roughly in proportion to their protein.
[13] abbreviates: C. albicans strain 1-1, copper-free controls, concentration of zinc sulfate or phosphorous acid.
Where [14] appears, read: C. albicans strain 3-1, copper-free controls, concentration of zinc sulfate or phosphorous acid.
[15] abbreviates: C. albicans strain 4-1, copper-free controls, concentration of zinc sulfate or phosphorous acid.
Where [16] appears, read: Experiment #1, 24 hours anaerobic.

Each structure is given as a SMILES string. Marks after values point to notes of the source that are not given here.

Description for A-431: A-431 (ATCC) was cultured in RPMI-1640 medium supplemented with 10% fetal bovine serum and 2 mM L-glutamine (complete medium) in a humidified incubator at 37′C with a 5% CO2 in air atmosphere. For cytotoxicity experiments the cells were trypsinized, washed, counted and 2×10^4 cells were plated into the wells of flat-bottom 96-well plates in complete medium and cultured for 3 days until a confluent monolayer was formed. […] All test products were diluted in complete medium and then added in triplicate to the confluent A-431 cells which were then cultured for a further 24 hours when cytotoxicity/cell survival was quantitatively assessed using the sulforhodamine B (SRB) assay as described below.
The cells were washed twice with RPMI-1640 medium and then fixed with 10% trichloroacetic acid for 1 hour at 4° C. After washing twice with tap water, the cells were stained with SRB (0.4% w/v SRB in 1% acetic acid) for 30 min at room temperature. After washing twice with tap water the remaining stain was dissolved in 10 mM Tris base and the absorbance of the wells was measured on a Dynatech Multiplate ELISA reader at 540 nm. Percent cell survival was calculated by dividing the test product absorbance by control absorbance and multiplying by 100.

Regarding `OP(O)O` [Composition H3PO3, phosphorous acid], the MIC in [1] (setting [13]) is over 500 µg/mL; in [1] (setting [14]), over 500 µg/mL; in data set [1] (setting [15]) it was over 500 µg/mL; in data set [1] (C. albicans strains), over 500 micrograms/milliliter.

In the case of `O=S(=O)([O-])[O-].[Cu+2]` [Copper sulfate, copper sulfate], the “Area of inhibition (AoI)” value in data set [2] (dissolved in gel, 800 micrograms/milliliter, TSA, 24 hours (FIG. 1)) came out at 28 mm^2. In [3], the “Zone of Inhibition (mm)” value was 13 mm. Besides, the “pH of stock solutions” value in data set [4] came to 3.4. The “MIC” value with P. acnes (setting [16]) stood at 100 µg/mL; against P. acnes (Experiment #2, 24 hours anaerobic) it was 200 µg/mL; in data set [5], 6.3 microgram/milliliter; in data set [6], 100 microgram/milliliter; in [7], 50 microgram/milliliter; in data set [8], 12.5 microgram/milliliter. Also, the “Diameter of fungal growth (mm)” value was determined as 15 mm in data set [9] (12.5 μg/ml, Day 4); 17 mm in data set [9] (12.5 μg/ml, Day 7); 18 mm in data set [9] (12.5 μg/ml, Day 11); 13 mm in data set [9] (37.5 μg/ml, Day 4); 16 mm in data set [9] (37.5 μg/ml, Day 7); 18 mm in [9] (37.5 μg/ml, Day 11). The “Diameter of fungal growth (mm)” value in data set [9] (125 μg/ml, Day 4, NG = no growth by phase microscopy) was 7 mm; in data set [9] (125 μg/ml, Day 7, NG = no growth), 10 mm; in [9] (125 μg/ml, Day 11, NG = no growth) it was 15 mm; in data set [10] (3.75 μg/ml, Day 7), 14 mm; in data set [10] (3.75 μg/ml, Day 15), 20 mm; in [10] (12.5 μg/ml, Day 7) it was 14 mm. For the same compound, the “Diameter of fungal growth (mm)” value in [10] (12.5 μg/ml, Day 15) is 20 mm; in [10] (37.5 μg/ml, Day 7), 13 mm; in data set [10] (37.5 μg/ml, Day 15, 20 mm = confluent), 20** mm; in data set [10] (125 μg/ml, Day 7), 10 mm; in [10] (125 μg/ml, Day 15), 18 mm; in data set [11] (12.5 μg/ml) it was 17 mm. Moreover, the “Diameter of fungal growth (mm)” value in [11] (37.5 μg/ml) is given as 17 mm; in [11] (125 μg/ml), 13 mm; in data set [11] (375 μg/ml, NG = no growth), 3* mm. Further, the “MIC (μg/ml Cu^2+)” value in [1] (C. albicans strain 1-1, 24 hr) is given as 6.3 μg/ml Cu^2+; in data set [1] (C. albicans strain 3-1, 24 hr), 6.3 μg/ml Cu^2+; in [1] (C. albicans strain 4-1, 24 hr) it was 6.3 μg/ml Cu^2+; in data set [12] (24 hr), 6.3 μg/ml Cu^2+. In addition, the “50% cytotoxic concentrations (CC50)” value with A-431 turned out to be 50 micrograms/milliliter.

As to `O=S(=O)([O-])[O-].[Zn+2]` [Zinc sulfate, zinc sulfate], the “effect on the growth of S1 (S. aureus)” value is “no effect” in data set [2] (alone in gel, 50-200 micrograms/milliliter (FIG. 2)) and “no effect” in [2] (in gel, 100 micrograms/milliliter (FIG. 3)). For the same compound, the “MIC” value against P. acnes (setting [16]) is 25 µg/mL; in the data set with P. acnes (Table 5 experiment, varying Cu:Zn ratios), 50 µg/mL; in data set [1] (setting [13]), over 150 µg/mL; in data set [1] (setting [14]), over 150 µg/mL; in [1] (setting [15]), over 150 µg/mL; in data set [1] (C. albicans strains), over 150 micrograms/milliliter. Also, in data set [12] (copper-free control, concentration of zinc sulfate), the MIC is over 150 µg/mL.

The values are drawn from US9474282B2, “Acid-solubilized copper-ammonium complexes and copper-zinc-ammonium complexes, compositions, preparations, methods, and uses” (priority 2013, dated 2016).
